This note sets out measurements from ChEMBL document CHEMBL1240381, “Spread of a chromosomal cefixime-resistant penA gene among different Neisseria gonorrhoeae lineages” (2010).

Converted amounts (≈) assume the structure as drawn.

What all share (format): functional
The test system of assay [1] is Neisseria gonorrhoeae. Description: Antimicrobial activity against Neisseria gonorrhoeae isolate NG9806 expressing chromosomal cefixime-resistant penA gene by agar dilution method. In general terms: Agar dilution tests growth on a series of plates holding different concentrations.
For assay [2], the system named is Neisseria gonorrhoeae. Description: Antimicrobial activity against Neisseria gonorrhoeae isolate NG9811 expressing chromosomal cefixime-resistant penA gene by agar dilution method.
In assay [3] the test system is Neisseria gonorrhoeae. Description: Antimicrobial activity against Neisseria gonorrhoeae isolate NG9812 expressing chromosomal cefixime-resistant penA gene by agar dilution method.
Assay [4] relates to Neisseria gonorrhoeae. Description: Antimicrobial activity against Neisseria gonorrhoeae isolate NG9911 expressing chromosomal cefixime-resistant penA gene by agar dilution method.
Assay [5] deals with Neisseria gonorrhoeae. Description: Antimicrobial activity against Neisseria gonorrhoeae isolate NG9912 expressing chromosomal cefixime-resistant penA gene by agar dilution method.
For assay [6], the system named is Neisseria gonorrhoeae. Description: Antimicrobial activity against Neisseria gonorrhoeae isolate NG9913 expressing chromosomal cefixime-resistant penA gene by agar dilution method.
For assay [7], the system named is Neisseria gonorrhoeae. Description: Antimicrobial activity against Neisseria gonorrhoeae isolate NG9914 expressing chromosomal cefixime-resistant penA gene by agar dilution method.
Assay [8] relates to Neisseria gonorrhoeae. Description: Antimicrobial activity against Neisseria gonorrhoeae isolate NG0002 expressing chromosomal cefixime-resistant penA gene by agar dilution method.
The subject of assay [9] is Neisseria gonorrhoeae. Description: Antimicrobial activity against Neisseria gonorrhoeae isolate NG0003 expressing chromosomal cefixime-resistant penA gene by agar dilution method.
Assay [10] concerns Neisseria gonorrhoeae. Description: Antimicrobial activity against Neisseria gonorrhoeae isolate NG0008 expressing chromosomal cefixime-resistant penA gene by agar dilution method.
For assay [11], the system named is Neisseria gonorrhoeae. Description: Antimicrobial activity against Neisseria gonorrhoeae isolate NG0109 expressing chromosomal cefixime-resistant penA gene by agar dilution method.
Assay [12] has as its system Neisseria gonorrhoeae. Description: Antimicrobial activity against Neisseria gonorrhoeae isolate NG0110 expressing chromosomal cefixime-resistant penA gene by agar dilution method.
Assay [13] concerns Neisseria gonorrhoeae. Description: Antimicrobial activity against Neisseria gonorrhoeae isolate NG0111 expressing chromosomal cefixime-resistant penA gene by agar dilution method.
For assay [14], the system named is Neisseria gonorrhoeae. Description: Antimicrobial activity against Neisseria gonorrhoeae isolate NG0201 expressing chromosomal cefixime-resistant penA gene by agar dilution method.
The subject of assay [15] is Neisseria gonorrhoeae. Description: Antimicrobial activity against Neisseria gonorrhoeae isolate NG0204 expressing chromosomal cefixime-resistant penA gene by agar dilution method.
For assay [16], the system named is Neisseria gonorrhoeae. Description: Antimicrobial activity against Neisseria gonorrhoeae isolate NG0205 expressing chromosomal cefixime-resistant penA gene by agar dilution method.
Assay [17] has as its system Neisseria gonorrhoeae. Description: Antimicrobial activity against Neisseria gonorrhoeae isolate NG0206 expressing chromosomal cefixime-resistant penA gene by agar dilution method.
In assay [18] the test system is Neisseria gonorrhoeae. Description: Antimicrobial activity against Neisseria gonorrhoeae isolate NG0207 expressing chromosomal cefixime-resistant penA gene by agar dilution method.
For assay [19], the system named is Neisseria gonorrhoeae. Description: Antimicrobial activity against Neisseria gonorrhoeae isolate NG0303 expressing chromosomal cefixime-resistant penA gene by agar dilution method.
The subject of assay [20] is Neisseria gonorrhoeae. Description: Antimicrobial activity against Neisseria gonorrhoeae isolate NG0304 expressing chromosomal cefixime-resistant penA gene by agar dilution method.
Assay [21] concerns Neisseria gonorrhoeae. Description: Antimicrobial activity against Neisseria gonorrhoeae isolate NG0311 expressing chromosomal cefixime-resistant penA gene by agar dilution method.
In assay [22] the test system is Neisseria gonorrhoeae. Description: Antimicrobial activity against Neisseria gonorrhoeae isolate NG0312 expressing chromosomal cefixime-resistant penA gene by agar dilution method.
Assay [23] deals with Neisseria gonorrhoeae. Description: Antimicrobial activity against Neisseria gonorrhoeae isolate NG0401 expressing chromosomal cefixime-resistant penA gene by agar dilution method.
Assay [24] relates to Neisseria gonorrhoeae. Description: Antimicrobial activity against Neisseria gonorrhoeae isolate NG0404 expressing chromosomal cefixime-resistant penA gene by agar dilution method.
For assay [25], the system named is Neisseria gonorrhoeae. Description: Antimicrobial activity against Neisseria gonorrhoeae isolate NG0410 expressing chromosomal cefixime-resistant penA gene by agar dilution method.
In assay [26] the test system is Neisseria gonorrhoeae. Description: Antimicrobial activity against Neisseria gonorrhoeae isolate NG0503 expressing chromosomal cefixime-resistant penA gene by agar dilution method.
Assay [27] has as its system Neisseria gonorrhoeae. Description: Antimicrobial activity against Neisseria gonorrhoeae isolate NG0508 expressing chromosomal cefixime-resistant penA gene by agar dilution method.
For assay [28], the system named is Neisseria gonorrhoeae. Description: Antimicrobial activity against Neisseria gonorrhoeae isolate NG0509 expressing chromosomal cefixime-resistant penA gene by agar dilution method.
The test system of assay [29] is Neisseria gonorrhoeae. Description: Antimicrobial activity against Neisseria gonorrhoeae isolate NG0511 expressing chromosomal cefixime-resistant penA gene by agar dilution method.
Assay [30] deals with Neisseria gonorrhoeae. Description: Antimicrobial activity against Neisseria gonorrhoeae isolate NG0512 expressing chromosomal cefixime-resistant penA gene by agar dilution method.
The test system of assay [31] is Neisseria gonorrhoeae. Description: Antimicrobial activity against Neisseria gonorrhoeae isolate NG0513 expressing chromosomal cefixime-resistant penA gene by agar dilution method.
Assay [32] deals with Neisseria gonorrhoeae. Description: Antimicrobial activity against Neisseria gonorrhoeae isolate NG0514 expressing chromosomal cefixime-resistant penA gene by agar dilution method.
In assay [33] the test system is Neisseria gonorrhoeae. Description: Antimicrobial activity against Neisseria gonorrhoeae isolate NG0202 expressing chromosomal cefixime-resistant penA gene by agar dilution method.
The test system of assay [34] is Neisseria gonorrhoeae. Description: Antimicrobial activity against Neisseria gonorrhoeae isolate NG0402 expressing chromosomal cefixime-resistant penA gene by agar dilution method.
Assay [35] relates to Neisseria gonorrhoeae. Description: Antimicrobial activity against Neisseria gonorrhoeae isolate NGON03-079 expressing chromosomal cefixime-resistant penA gene by agar dilution method.
For assay [36], the system named is Neisseria gonorrhoeae. Description: Antimicrobial activity against Neisseria gonorrhoeae isolate NGON03-092 expressing chromosomal cefixime-resistant penA gene by agar dilution method.
The subject of assay [37] is Neisseria gonorrhoeae. Description: Antimicrobial activity against Neisseria gonorrhoeae isolate NGON03-115 expressing chromosomal cefixime-resistant penA gene by agar dilution method.
Assay [38] has as its system Neisseria gonorrhoeae. Description: Antimicrobial activity against Neisseria gonorrhoeae isolate NGON07-002 expressing chromosomal cefixime-resistant penA gene by agar dilution method.
Assay [39] deals with Neisseria gonorrhoeae. Description: Antimicrobial activity against Neisseria gonorrhoeae isolate NG0202 expressing chromosomal cefixime-resistant penA gene at 0.031 ug/ml after 16 hrs.
For assay [40], the system named is Neisseria gonorrhoeae. Description: Antimicrobial activity against Neisseria gonorrhoeae isolate NG0003 expressing chromosomal cefixime-resistant penA gene at […] after 16 hrs.
The test system of assay [41] is Neisseria gonorrhoeae. Description: Antimicrobial activity against Neisseria gonorrhoeae isolate NG0202 expressing chromosomal cefixime-resistant penA gene at 2 ug/ml after 16 hrs.
For assay [42], the system named is Neisseria gonorrhoeae. Description: Antimicrobial activity against Neisseria gonorrhoeae isolate NG0003 expressing chromosomal cefixime-resistant penA gene at 2 ug/ml after 16 hrs.

The term MIC denotes the least concentration at which growth counts as inhibited. Higher therefore signals a need for much substance. With `C=CC1=C(C(=O)O)N2C(=O)[C@@H](NC(=O)/C(=N\OCC(=O)O)c3csc(N)n3)[C@H]2SC1` [CEFIXIME], the MIC in assay [1], in assay [2], in [3], in assay [4], in assay [5] and in assay [6] was 0.25 µg/mL (≈ 0.551 µM) throughout. In addition, the MIC in [7], in assay [8], in assay [9], in assay [10], in assay [11] and in [12] was 0.25 µg/mL (≈ 0.551 µM) each time. Also, the MIC in assay [13], in [14], in assay [15], in assay [16], in assay [17] and in assay [18] was 0.25 µg/mL (≈ 0.551 µM) throughout. Besides, the MIC amounted to 0.25 µg/mL (≈ 0.551 µM) in [19]; 1 µg/mL (≈ 2.21 µM) in assay [20]; 0.5 µg/mL (≈ 1.1 µM) in assay [21]; 0.5 µg/mL (≈ 1.1 µM) in assay [22]; 0.5 µg/mL (≈ 1.1 µM) in assay [23]; 0.5 µg/mL (≈ 1.1 µM) in [24]. For the same compound, the MIC in assay [25] was 0.5 µg/mL (≈ 1.1 µM); in assay [26] it was 0.25 µg/mL (≈ 0.551 µM); in assay [27], 0.25 µg/mL (≈ 0.551 µM); in assay [28], 0.25 µg/mL (≈ 0.551 µM); in [29], 0.25 µg/mL (≈ 0.551 µM); in [30], 0.25 µg/mL (≈ 0.551 µM). For the same compound, the MIC in [31] was 0.5 µg/mL (≈ 1.1 µM); in assay [32], 0.25 µg/mL (≈ 0.551 µM); in assay [33], 0.004 µg/mL (≈ 0.00882 µM); in [34], 0.031 µg/mL (≈ 0.0684 µM); in [35] it was 0.5 µg/mL (≈ 1.1 µM); in assay [36] it was 0.25 µg/mL (≈ 0.551 µM). The figures for the MIC in [37] and in assay [38] were 0.5 µg/mL (≈ 1.1 µM) and 0.25 µg/mL (≈ 0.551 µM), respectively. Further, the CFU is under 10 mL⁻¹ in [39] and 1.01 ×10⁸ /ml in assay [40].

In the case of `O=C(O)c1cn(C2CC2)c2cc(N3CCNCC3)c(F)cc2c1=O` [CIPROFLOXACIN], the MIC in assay [9] came out at 0.031 µg/mL (≈ 0.0936 µM); in assay [33], 8 µg/mL (≈ 24.1 µM). Also, the CFU in assay [41] is 0.71 ×10⁸ /ml; in assay [42], under 10 mL⁻¹.
